Experimental data taken from patent publication US20240109903A1, “SUBSTITUTED HETEROCYCLES FOR TREATING CANCER” (Northwestern University, priority 2022, published 2024).

Tests used:
SK-MEL-5 = experiment: NCI 60 five-dose screen SK-MEL-5; type: cell-based; conditions: Homo sapiens
SK-MEL-28 = experiment: NCI 60 five-dose screen SK-MEL-28; type: cell-based; conditions: Homo sapiens
OVCAR-3 = experiment: NCI 60 five-dose screen OVCAR-3; type: cell-based; conditions: Homo sapiens
T-47D = experiment: NCI 60 five-dose screen T-47D; type: cell-based; conditions: Homo sapiens, T47D
A549/ATCC = experiment: NCI 60 five-dose screen A549/ATCC; type: cell-based; conditions: Homo sapiens
TK-10 = experiment: NCI 60 five-dose screen TK-10; type: cell-based; conditions: Homo sapiens
HOP-62 = experiment: NCI 60 five-dose screen HOP-62; type: cell-based; conditions: Homo sapiens
BT-549 = experiment: NCI 60 five-dose screen BT-549; type: cell-based; conditions: Homo sapiens
MOLT-4 = experiment: NCI 60 five-dose screen MOLT-4; type: cell-based; conditions: Homo sapiens
MALME-3M = experiment: NCI 60 five-dose screen MALME-3M; type: cell-based; conditions: Homo sapiens, Malme-3M
RPMI-8226 = experiment: NCI 60 five-dose screen RPMI-8226; type: cell-based; conditions: Homo sapiens
786-0 = experiment: NCI 60 five-dose screen 786-0; type: cell-based; conditions: Homo sapiens
HL-60(TB) = experiment: NCI 60 five-dose screen HL-60(TB); type: cell-based; conditions: Homo sapiens
SF-539 = experiment: NCI 60 five-dose screen SF-539; type: cell-based; conditions: Homo sapiens
OVCAR-4 = experiment: NCI 60 five-dose screen OVCAR-4; type: cell-based; conditions: Homo sapiens
A498 = experiment: NCI 60 five-dose screen A498; type: cell-based; conditions: Homo sapiens
U251 = experiment: NCI 60 five-dose screen U251; type: cell-based; conditions: Homo sapiens
NCI-H23 = experiment: NCI 60 five-dose screen NCI-H23; type: cell-based; conditions: Homo sapiens
CAKI-1 = experiment: NCI 60 five-dose screen CAKI-1; type: cell-based; conditions: Homo sapiens
IGROV1 = experiment: NCI 60 five-dose screen IGROV1; type: cell-based; conditions: Homo sapiens
M14 = experiment: NCI 60 five-dose screen M14; type: cell-based; conditions: Homo sapiens
ACHN = experiment: NCI 60 five-dose screen ACHN; type: cell-based; conditions: Homo sapiens
MDA-MB-468 = experiment: NCI 60 five-dose screen MDA-MB-468; type: cell-based; conditions: Homo sapiens
NCI-H226 = experiment: NCI 60 five-dose screen NCI-H226; type: cell-based; conditions: Homo sapiens
SR = experiment: NCI 60 five-dose screen SR; type: cell-based, human
HS 578T = experiment: NCI 60 five-dose screen HS 578T; type: cell-based; conditions: Homo sapiens
MCF7 = experiment: NCI 60 five-dose screen MCF7; type: cell-based; conditions: Homo sapiens
HCC-2998 = experiment: NCI 60 five-dose screen HCC-2998; type: cell-based; conditions: Homo sapiens
[1] = read-out: LC50 (the source's name) (converted)
[2] = read-out: LC50 (the source's name)

O=c1ccc(Cn2c(C(F)(F)F)cc3c(Cl)ncnc32)c[nH]1 [NUCC-0226698]
GI50 (SK-MEL-5): 4.07 µM
IC50 (SK-MEL-5): 7.08 µM
IC (TGI) (SK-MEL-5): 15.1 µM
CC50 (SK-MEL-5; [1]): 38.9 µM
GI50 (SK-MEL-28): 3.89 µM
IC50 (SK-MEL-28): 7.59 µM
IC (TGI) (SK-MEL-28): 18.6 µM
CC50 (SK-MEL-28; [1]): 66.1 µM
GI50 (OVCAR-3): 14.8 µM
IC50 (OVCAR-3): 28.8 µM
IC (TGI) (OVCAR-3): 33.1 µM
CC50 (OVCAR-3; [1]): 72.4 µM
GI50 (T-47D): 30.2 µM
IC50 (T-47D): 79.4 µM
IC (TGI) (T-47D): 100 µM
CC50 (T-47D; [2]): ≥ 100 µM
GI50 (A549/ATCC): 64.6 µM
IC50 (A549/ATCC): 100 µM
IC (TGI) (A549/ATCC): 100 µM
CC50 (A549/ATCC; [1]): ≥ 100 µM
GI50 (TK-10): ≥ 100 µM
IC50 (TK-10): 100 µM
IC (TGI) (TK-10): 100 µM
CC50 (TK-10; [1]): ≥ 100 µM
GI50 (HOP-62): 46.8 µM
IC50 (HOP-62): 100 µM
IC (TGI) (HOP-62): 100 µM
CC50 (HOP-62; [1]): ≥ 100 µM
GI50 (BT-549): 14.1 µM
IC50 (BT-549): 29.5 µM
IC (TGI) (BT-549): 28.8 µM
CC50 (BT-549; [1]): 58.9 µM
GI50 (MOLT-4): 3.24 µM
IC50 (MOLT-4): 4.79 µM
IC (TGI) (MOLT-4): 17 µM
CC50 (MOLT-4; [2]): ≥ 100 µM
GI50 (MALME-3M): 15.8 µM
IC50 (MALME-3M): 36.3 µM
IC (TGI) (MALME-3M): 34.7 µM
CC50 (MALME-3M; [1]): 77.6 µM
GI50 (RPMI-8226): 22.9 µM
IC50 (RPMI-8226): 38 µM
IC (TGI) (RPMI-8226): 100 µM
CC50 (RPMI-8226; [2]): ≥ 100 µM
GI50 (786-0): 43.7 µM
IC50 (786-0): 72.4 µM
IC (TGI) (786-0): 100 µM
CC50 (786-0; [1]): ≥ 100 µM
GI50 (HL-60(TB)): 2.09 µM
IC50 (HL-60(TB)): 3.63 µM
IC (TGI) (HL-60(TB)): 6.03 µM
CC50 (HL-60(TB); [1]): ≥ 100 µM
GI50 (SF-539): 17.4 µM
IC50 (SF-539): 32.4 µM
IC (TGI) (SF-539): 40.7 µM
CC50 (SF-539; [1]): 95.5 µM
GI50 (OVCAR-4): 17.8 µM
IC50 (OVCAR-4): 36.3 µM
IC (TGI) (OVCAR-4): 44.7 µM
CC50 (OVCAR-4; [1]): ≥ 100 µM
GI50 (A498): ≥ 100 µM
IC50 (A498): 100 µM
IC (TGI) (A498): 100 µM
CC50 (A498; [1]): ≥ 100 µM
GI50 (U251; U-251): 22.4 µM
IC50 (U251; U-251): 33.1 µM
IC (TGI) (U251; U-251): 69.2 µM
CC50 (U251; U-251, read-out: LC50 (the source's name) (converted)): ≥ 100 µM
GI50 (NCI-H23): 3.98 µM
IC50 (NCI-H23): 8.71 µM
IC (TGI) (NCI-H23): 18.6 µM
CC50 (NCI-H23; [1]): 72.4 µM
GI50 (CAKI-1): 23.4 µM
IC50 (CAKI-1): 42.7 µM
IC (TGI) (CAKI-1): 100 µM
CC50 (CAKI-1; [1]): ≥ 100 µM
GI50 (IGROV1; IGROV-1): 2.29 µM
IC50 (IGROV1; IGROV-1): 3.72 µM
IC (TGI) (IGROV1; IGROV-1): 6.03 µM
CC50 (IGROV1; IGROV-1, read-out: LC50 (the source's name) (converted)): 26.3 µM
GI50 (M14): 4.07 µM
IC50 (M14): 6.92 µM
IC (TGI) (M14): 21.9 µM
CC50 (M14; [1]): ≥ 100 µM
GI50 (ACHN): 22.4 µM
IC50 (ACHN): 33.9 µM
IC (TGI) (ACHN): 100 µM
CC50 (ACHN; [1]): ≥ 100 µM
GI50 (MDA-MB-468): 2.09 µM
IC50 (MDA-MB-468): 8.13 µM
IC (TGI) (MDA-MB-468): 5.75 µM
CC50 (MDA-MB-468; [1]): 25.1 µM
GI50 (NCI-H226): 31.6 µM
IC50 (NCI-H226): 100 µM
IC (TGI) (NCI-H226): 100 µM
CC50 (NCI-H226; [1]): ≥ 100 µM
TGI (SR): 4.93 −log[M]
GI50 (SR; Homo sapiens): 2.75 µM
IC50 (SR; Homo sapiens): 3.89 µM
CC50 (SR; Homo sapiens, read-out: LC50 (the source's name)): ≥ 100 µM
GI50 (HS 578T): 8.71 µM
IC50 (HS 578T): 100 µM
IC (TGI) (HS 578T): 50.1 µM
CC50 (HS 578T; [2]): ≥ 100 µM
GI50 (MCF7): 20.9 µM
IC50 (MCF7): 32.4 µM
IC (TGI) (MCF7): 67.6 µM
CC50 (MCF7; [1]): ≥ 100 µM
GI50 (HCC-2998): 2.88 µM
IC50 (HCC-2998): 5.25 µM
IC (TGI) (HCC-2998): 10 µM
CC50 (HCC-2998; [1]): 34.7 µM
